# Reference: ChEMBL document CHEMBL3046204, “Protective effect of Centaurea pallescens Del. against CCl4-induced injury on a human hepatoma cell line (Huh7)” (2013)
# Calls of active or inactive are those of the source. The rule behind the calls is not given here.
# Legend:
# [1] = test system: Huh-7; assay: Hepatoprotective activity against CCL4-induced toxicity in human HuH7 cells assessed as decrease in alanine transaminase level at 10 to 1000 ug/ml incubated for 1 hr prior to CCL4-challenge measured after 2 hrs relative to control; type: functional, cell-based
# [2] = test system: Huh-7; assay: Hepatoprotective activity against CCL4-induced toxicity in human HuH7 cells assessed as increase in superoxide dismutase activity at 10 to 1000 ug/ml incubated for 1 hr prior to CCL4-challenge measured after 2 hrs relative to control; type: functional, cell-based
# [3] = test system: Huh-7; assay: Hepatoprotective activity against CCL4-induced toxicity in human HuH7 cells assessed as decrease in aspartate aminotransferase level at 10 to 1000 ug/ml incubated for 1 hr prior to CCL4-challenge measured after 2 hrs relative to control; type: functional, cell-based
# [4] = test system: Huh-7; assay: Hepatoprotective activity against CCL4-induced toxicity in human HuH7 cells assessed as increase in GSH level at 10 to 1000 ug/ml incubated for 1 hr prior to CCL4-challenge measured after 2 hrs relative to control; type: functional, cell-based
# [5] = test system: Huh-7; assay: Hepatoprotective activity against CCL4-induced toxicity in human HuH7 cells assessed as aspartate aminotransferase level at 10 ug/ml incubated for 1 hr prior to CCL4-challenge measured after 2 hrs (reference value: 38.9 +/- 7.9 U/ml); type: functional
# [6] = test system: Huh-7; assay: Hepatoprotective activity against CCL4-induced toxicity in human HuH7 cells assessed as superoxide dismutase activity at 100 ug/ml incubated for 1 hr prior to CCL4-challenge measured after 2 hrs (reference value: 168.4 +/- 24.9 U/ml); type: functional
# [7] = test system: Huh-7; assay: Hepatoprotective activity against CCL4-induced toxicity in human HuH7 cells assessed as alanine transaminase level at 100 ug/ml incubated for 1 hr prior to CCL4-challenge measured after 2 hrs (reference value: 21.5 +/- 3.7 U/ml); type: functional
Compound,Activity [1],Activity [2],Activity [3],Activity [4],Activity [5],Activity [6],Activity [7]
O=c1c(O[C@@H]2O[C@H](CO)[C@@H](O)[C@H](O)[C@H]2O)c(-c2ccc(O)c(O)c2)oc2cc(O)cc(O)c12,Active,Active,Active,Active,,,
O=c1c(OC2O[C@H](CO)[C@@H](O)[C@H](O)[C@H]2O)c(-c2cc(O)c(O)c(O)c2)oc2cc(O)cc(O)c12 (stereo not given in full) [MYRICETIN 3-O-GLUCOSIDE],Active,Active,Active,Active,5.8 U/ml,,
COc1ccc(-c2oc3cc(O[C@@H]4O[C@@H](C)[C@H](OC(=O)/C=C/c5ccc(O)cc5)[C@@H](O)[C@H]4O)cc(O)c3c(=O)c2O[C@@H]2O[C@H](CO)[C@@H](O)[C@H](O[C@@H]3O[C@@H](C)[C@H](O)[C@@H](O)[C@H]3O)[C@H]2OC(=O)/C=C/c2ccc(O)cc2)cc1,Active,Active,Active,Active,,264.6 U/ml,18.6 U/ml
